Laboratory results from US20120202287A1, “Stem Cell Culture Methods” (priority 2009, published 2012).

Assays:
[1] = tested on: SA121 hESCs; experiment: General (monolayer) differentiation on matrigel in defined media, qRT-PCR of stem cell and differentiation markers after 14 days; format: cell-based, human; design: key to NO EHNA EFFECT: X: NO EHNA EFFECT; key to Full EHNA effect: those which maintained at least 50% of the level of NANOG-expression in comparison to EHNA and those that inhibited the expression of PAX6 to 50% or less than the value untreated controls were considered to have an EHNA-like effect; conditions: for PARTIAL EHNA EFFECT (PAX6): only PAX6 50% or less of untreated control; for NO EHNA EFFECT: neither NANOG nor PAX6 criterion met; for Full EHNA effect: NANOG at least 50% of EHNA level and PAX6 50% or less of untreated control
Experimental: In order to ascertain the efficacy of the compounds of the present invention, each compound was tested to determine whether it can maintain the stem cell marker NANOG and/or block the differentiation marker PAX6 in the face of differentiating conditions in a manner similar to EHNA. Cells enzymatically passaged onto matrigel-coated dishes and grown for 2 weeks in defined media with or without (control) compound addition were analysed by qRT-PCR to determine the level of NANOG and PAX6 expression.
For general differentiation experiments cells were passaged with trypsin onto matrigel coated twelve-well dishes in the fully supportive media (see above). The media was then changed to defined media 24 h later and any experimental component was first added at this point. The media and experimental supplement were changed daily.
Cells were routinely harvested for qRT-PCR analysis 14 days after the first addition of the experimental compound.
Total RNA was extracted using QIAGEN RNeasy kits (Qiagen Inc, Valencia, Calif., http://www.qiagen.com) and DNaseI treatment was performed using Turbo DNA-Free (Ambion). The absence of genomic DNA was confirmed by quantitative PCR (qPCR) (see below) using glyceraldehyde-3-phosphate dehydrogenase (GAPDH) Taqman primers and probe (MWG). cDNA was synthesized with 2 μg total RNA in 20 μl using Superscript II according to manufacturers' instructions ((Carlsbad, Calif., http://www.Invitrogen.com)). For qPCR, cDNAs were diluted 1 in 60 and 5 μl used per sample in a 15 μl total reaction volume. Platinum pPCR supermix UDG with Rox (Carlsbad, Calif., http://www.Invitrogen.com) was used according to the manufacturer's instructions using an Applied Biosystems 7300 real time PCR system (Applied Biosystems, Warrington, UK, http://europe.appliedbiosystems.com). Each reaction contained 0.6 μM of each primer and Taqman probe (MWG). Biological and technical replicates were each performed in triplicate for each sample, standardised to the GAPDH housekeeping gene and relative expression values were calculated using the 7300 system SDS software (Applied Biosystems, Warrington, UK, http://europe.appliedbiosystems.com).
Cells were enzymatically passaged onto matrigel-coated dishes and grown for 2 weeks in defined media. After 14 days, qRT-PCR was utilised to analyse the expression of a variety of markers of pluripotency and differentiation. In the graphs in FIG. 9 the value 1 was set to the expression level of the gene in undifferentiated SA121 hESCs.
Cells were enzymatically passaged onto matrigel-coated dishes and grown for 2 weeks in defined media (1× confluent T25 tissue culture flask was passaged to 2×12 well dishes) with or without (control) compound addition. All compounds were added at 10 uM and each was performed in triplicate. Media and compounds were changed every 48 hours. After 14 days RNA was isolated and qRT-PCR was utilised to analyse the expression of NANOG and PAX6. The results are illustrated in FIGS. 13 to 17.
In the graphs in FIGS. 13, 14 15, 16 and 17 the value 1 was set relative to the expression level of the gene in the control (no compound) samples. […] This experiment allowed the effect of the EHNA-related compounds to be measured directly in comparison to EHNA. […] Those which had on effect, to these levels, on either PAX6 or NANOG were considered to have a partial-EHNA effect.

[2] = Solubility in 5% DMSO-water; format: physicochemical

SMILES: C[C@H]([C@@H](O)CCc1ccccc1)n1cnc2c(N)ncnc21.Cl [HWC42, (3S,4R)-4-(6-amino-9H-purin-9-yl)-1-phenylpentan-3-ol hydrochloride]
- PARTIAL EHNA EFFECT (PAX6) ([1]; 10 uM, 14 days, qRT-PCR): X (Those which had on effect, to these levels, on either PAX6 or NANOG were considered to have a partial-EHNA effect)

SMILES: COc1ncnc2c1ncn2[C@H](C)[C@@H](O)CCc1ccccc1.Cl [HWC43, (3S,4R)-4-(6-methoxy-9H-purin-9-yl)-1-phenylpentan-3-ol hydrochloride]
- NO EHNA EFFECT ([1]; 10 uM, 14 days, qRT-PCR): X

SMILES: C[C@H](O)[C@@H](CCc1ccccc1)n1cnc2c(N)ncnc21.Cl [HWC44, (2S,3R)-3-(6-amino-9H-purin-9-yl)-5-phenylpentan-2-ol hydrochloride]
- NO EHNA EFFECT ([1]; 10 uM, 14 days, qRT-PCR): X

SMILES: COc1ncnc2c1ncn2[C@H](CCc1ccccc1)[C@H](C)O.Cl [HWC45, (2S,3R)-3-(6-methoxy-9H-purin-9-yl)-5-phenylpentan-2-ol hydrochloride]
- NO EHNA EFFECT ([1]; 10 uM, 14 days, qRT-PCR): X

SMILES: CCCCCC[C@H]([C@H](C)O)n1cnc2c(N)ncnc21 [HWC46, (2S,3R)-3-(6-amino-9H-purin-9-yl)nonan-2-ol]
- Full EHNA effect ([1]; 10 uM, 14 days, qRT-PCR): X

SMILES: CCCCCC[C@H]([C@H](C)O)n1cnc2c(OC)ncnc21 [HWC47, (2S,3R)-3-(6-methoxy-9H-purin-9-yl)nonan-2-ol]
- NO EHNA EFFECT ([1]; 10 uM, 14 days, qRT-PCR): X

SMILES: CCCCCC[C@H](O)[C@@H](C)n1cnc2c(N)ncnc21 [HWC48, (2R,3S)-2-(6-amino-9H-purin-9-yl)nonan-3-ol]
- PARTIAL EHNA EFFECT (PAX6) ([1]; 10 uM, 14 days, qRT-PCR): X (Those which had on effect, to these levels, on either PAX6 or NANOG were considered to have a partial-EHNA effect)

SMILES: CCCCCC[C@H](O)[C@@H](C)n1cnc2c(OC)ncnc21 [HWC49, (2R,3S)-2-(6-methoxy-9H-purin-9-yl)nonan-3-ol]
- NO EHNA EFFECT ([1]; 10 uM, 14 days, qRT-PCR): X

SMILES: CCCCCC[C@@H](O)[C@H](C)n1cnc2c(N)ncnc21 [HWC50, (2S,3R)-2-(6-amino-9H-purin-9-yl)nonan-3-ol]
- PARTIAL EHNA EFFECT (PAX6) ([1]; 10 uM, 14 days, qRT-PCR): X (Those which had on effect, to these levels, on either PAX6 or NANOG were considered to have a partial-EHNA effect)

SMILES: CCCCCC[C@@H](O)[C@H](C)n1cnc2c(OC)ncnc21 [HWC51, (2S,3R)-2-(6-methoxy-9H-purin-9-yl)nonan-3-ol]
- NO EHNA EFFECT ([1]; 10 uM, 14 days, qRT-PCR): X

SMILES: CCCCCC[C@@H]([C@@H](C)O)n1cnc2c(N)ncnc21 [HWC52, (2R,3S)-3-(6-amino-9H-purin-9-yl)nonan-2-ol]
- PARTIAL EHNA EFFECT (PAX6) ([1]; 10 uM, 14 days, qRT-PCR): X (Those which had on effect, to these levels, on either PAX6 or NANOG were considered to have a partial-EHNA effect)

SMILES: CCCCCC[C@@H]([C@@H](C)O)n1cnc2c(OC)ncnc21 [HWC53, (2R,3S)-3-(6-methoxy-9H-purin-9-yl)nonan-2-ol]
- NO EHNA EFFECT ([1]; 10 uM, 14 days, qRT-PCR): X

SMILES: CCCCC[C@H](O)[C@@H](C)n1cnc2c(N)ncnc21 [HWC58, (2R,3S)-2-(6-amino-9H-purin-9-yl)octan-3-ol]
- PARTIAL EHNA EFFECT (NANOG) ([1]; 10 uM, 14 days, qRT-PCR, only NANOG at least 50% of EHNA level): X (Those which had on effect, to these levels, on either PAX6 or NANOG were considered to have a partial-EHNA effect)

SMILES: CCCCC[C@H]([C@H](C)O)n1cnc2c(N)ncnc21 [HWC59, (2S,3R)-3-(6-amino-9H-purin-9-yl)octan-2-ol]
- NO EHNA EFFECT ([1]; 10 uM, 14 days, qRT-PCR): X

SMILES: CCC[C@H]([C@H](C)O)n1cnc2c(N)ncnc21 [HWC60, (2S,3R)-3-(6-Amino-9H-purin-9-yl)hexan-2-ol]
- NO EHNA EFFECT ([1]; 10 uM, 14 days, qRT-PCR): X

SMILES: CCC[C@H](O)[C@@H](C)n1cnc2c(N)ncnc21 [HWC61, (2R,3S)-2-(6-amino-9H-purin-9-yl)hexan-3-ol]
- NO EHNA EFFECT ([1]; 10 uM, 14 days, qRT-PCR): X

SMILES: CCCCCCCCCCn1cnc2c(N)ncnc21 [HWC64, 9-(decan-1-yl)-9H-purin-6-amine]
- Full EHNA effect ([1]; 10 uM, 14 days, qRT-PCR): X

SMILES: CCCCCCCCCCn1cc2c(N)ncnc2n1 [HWC-3, 2-decyl-2H-pyrazolo[3,4-d]pyrimidin-4-amine]
- solubility in 5% DMSO-water [2]: poor solubility

SMILES: CCCCCCC(C(C)O)n1cnc2cccnc21.Cl (centres unmarked) [HWC-5, 3-(3H-imidazo[4,5-b]pyridin-3-yl)nonan-2-ol hydrochloride]
- prevention of differentiation of hESCs ([1]; FIG. 10): can prevent differentiation of hESCs
- PAX6 expression in differentiating conditions ([1]; qRT-PCR, 14 days): inhibiting PAX6 expression
- NANOG expression in differentiating conditions ([1]; qRT-PCR, 14 days, relative to untreated control): capable of maintaining NANOG

SMILES: CC(C)Cn1c(=O)n(C)c(=O)c2[nH]cnc21 [IBMX, 3-Isobutyl-1-methylxanthine, reference compound]
- PAX6 expression in differentiating conditions ([1]; qRT-PCR, 14 days): nor did they inhibit PAX6 induction
- stem cell marker expression (NANOG, ZFP42, POU5F1) in differentiating conditions ([1]; qRT-PCR, 14 days, FIG. 9a): Neither BAY nor IBMX maintained stem cell marker expression
